Data reported in ChEMBL document CHEMBL3507680, “University of Dundee, Gates Library screen for HepG2 cell viability”.

Test: Human HepG2 cell viability assay in 384 well format
Type: toxicity, cell-based
Parameters: dose 125 nL, time 70.5 hour; concentration not given beside the values
Conditions: HepG2 cells, read-out: Inhibition

Compared with `CN(Cc1cccnc1)CC1CC12CCN(Cc1nccs1)CC2` (stereo unspecified), `c1cncc(-c2nccc(CN3CCCC3)n2)c1` is higher in cytotoxicity at 70.5 h: 2.96% for the first, 3.79% for the second.

Going from `COc1cc(OC)cc(C(=O)NCC(c2cccn2C)N2CCCC2)c1` (stereo unspecified) to `COc1ccc(NC(=O)NCC(O)c2ccccc2F)c(OC)c1` (stereo unspecified), the cytotoxicity at 70.5 h falls from 30.6% to 19.2%.

Compared with `Cn1c(CN2CCOCC2)cc(=O)c(O)c1CN1CCOCC1`, `CCn1cc(CN2CCCN(C(=O)C3(C)CCOCC3)CC2)cn1` is higher in cytotoxicity at 70.5 h: -12.3% for the first, -10.2% for the second.

Going from `CN(Cc1ccccn1)CC1CCCN1c1cccnn1` (stereo unspecified) to `Fc1cccc(-c2nc(CN3CCCC3Cn3cccn3)co2)c1` (stereo unspecified), the cytotoxicity at 70.5 h rises from -5.71% to 15.8%.

Going from `CC(Oc1ccc(F)cc1F)C(=O)N1CCC2(CCCO2)CC1` (stereo unspecified) to `O=C(CCN1CCC(C(=O)c2cc(F)ccc2F)CC1)NC1CCCC1`, the cytotoxicity at 70.5 h falls from 27% to -17.8%.

Going from `CCn1cnnc1CNC(=O)c1cc(Cl)ccc1F` to `CC(NCCn1cccn1)c1cc(F)ccc1F` (stereo unspecified), the cytotoxicity at 70.5 h rises from -11.5% to -3.98%.

Going from `Clc1ccccc1OC1CCN(CC2CCOC2)CC1` (stereo unspecified) to `CN(C1CCN(c2ccccn2)CC1)S(=O)(=O)N1CCOCC1`, the cytotoxicity at 70.5 h falls from 3.25% to -7.57%.

Compared with `O=C(Nc1ccccn1)C1CCN(C(=O)COc2ccccc2F)C1` (stereo unspecified), `Cc1cccc(OCCNC(=O)CN2CCCC2Cn2cccn2)c1` (stereo unspecified) is lower in cytotoxicity at 70.5 h: 18.6% for the first, -15.8% for the second.

First: CC(CCc1ccccc1F)C(=O)NS(=O)(=O)N(C)C(C)C (stereo unspecified)
Second: CCC(C)NC(=O)CCc1ccnc2ccccc12 (stereo unspecified)
The cytotoxicity at 70.5 h of the first is lower: -12.3% for the first, 2.59% for the second.

Going from `FC(F)(F)c1cccc(C2(CNCc3ccncc3)CCOCC2)c1` to `Cc1cccc(-c2ccc(C(=O)NCC3CCOC3)c(=O)[nH]2)c1` (stereo unspecified), the cytotoxicity at 70.5 h falls from 6.55% to -28.7%.

Compared with `O=S1(=O)CCN2C(=N1)Oc1ccc(Cl)cc12`, `CN1CCCCC1Cc1nc(Cc2cccc(F)c2)no1` (stereo unspecified) is lower in cytotoxicity at 70.5 h: 23.7% for the first, -7.83% for the second.

Compared with `CC(NCc1ccc(OCC(N)=O)cc1)c1ccc2c(c1)CCCC2` (stereo unspecified), `CCCn1ccnc1CN1CCC(Oc2ccc(Cl)cc2)(C(=O)O)CC1` is lower in cytotoxicity at 70.5 h: -4.04% for the first, -10.4% for the second.

Going from `CCC1CCCCN1Cc1ncc(C(C)(C)C)o1` (stereo unspecified) to `Cc1nc(CN(C)C2CCN(CC3CCCCC3)C2)no1` (stereo unspecified), the cytotoxicity at 70.5 h falls from -7.2% to -11.6%.

Compared with `NC(=O)CN1CCCC1c1csc(Nc2cnccn2)n1` (stereo unspecified), `Cc1noc(C)c1CN1C[C@@H]2CCCO[C@@H]2[C@H](Nc2ccccn2)C1` is higher in cytotoxicity at 70.5 h: -9.23% for the first, -4.07% for the second.

Compared with `CC1CCc2nn(CCNC(=O)C3CCCC3)c(=O)cc2C1` (stereo unspecified), `CS(=O)(=O)N1CC[C@@H]2[C@@H](CCC(=O)N2CCC2=CCCCC2)C1` is higher in cytotoxicity at 70.5 h: -3.14% for the first, 16.1% for the second.

Compared with `CN(C)CCN1CCCC12CCCN(C(=O)c1cccnc1)C2` (stereo unspecified), `Cc1ccc(C(=O)N2CCC3(CCC(=O)N(CC(N)=O)C3)CC2)cc1` is lower in cytotoxicity at 70.5 h: -5.22% for the first, -8.05% for the second.

Compared with `COc1ccc2[nH]cc(-c3ccnc(N4CCC(C)CC4)n3)c2c1`, `CCC(C)Nc1ccc(-c2nc(-c3cccc(OC)c3OC)no2)cn1` (stereo unspecified) is higher in cytotoxicity at 70.5 h: 1.51% for the first, 13.1% for the second.

First: CN(C)C(=O)c1ccc2c(c1)N(C)C(CC(=O)NCCC(C)(C)C)CO2 (stereo unspecified)
Second: CCSCCNC(=O)C(c1cccc(C)c1)N(C)C (stereo unspecified)
The cytotoxicity at 70.5 h of the first is lower: -5.81% for the first, 35.5% for the second.

First: COc1ccc(CNCCc2ccn(-c3ccccc3)n2)cc1O
Second: COc1ccc(Cl)cc1CNCCCn1ccnc1
The cytotoxicity at 70.5 h of the first is lower: -8.7% for the first, -2.31% for the second.

First: CNS(=O)(=O)Cc1cccc(CNC(=O)Nc2cn[nH]c2)c1
Second: O=S(=O)(CCc1ccccc1)Cc1nc(C2CC2)no1
The cytotoxicity at 70.5 h of the first is higher: -4.03% for the first, -13% for the second.

Going from `CCc1nc(CN2CCCN(C(=O)COC)CC2)cs1` to `CCc1nnsc1C(=O)N1CCCN(Cc2cnn(CC)c2)CC1`, the cytotoxicity at 70.5 h falls from -6.47% to -7.53%.

Going from `O=C1CC2(CCN(CC3CC3)CC2)CN1Cc1cc(F)cc(F)c1` to `CCN1C(=O)CCC12CCCN(Cc1ccc(F)cc1)CC2` (stereo unspecified), the cytotoxicity at 70.5 h falls from -2.81% to -9.34%.

First: COCCNC(=O)C1CN(Cc2cccc(C)n2)Cc2ccnn2C1 (stereo unspecified)
Second: Cc1ccc(C(=O)N2C[C@@H]3[C@@H](C2)OCC(=O)N3Cc2cccnc2)o1
The cytotoxicity at 70.5 h of the first is lower: -5.1% for the first, -2.11% for the second.

Going from `CCn1nc(C)c(NC(=O)CN2CCN(C(C)=O)CC2)c1C` to `Cc1nc(CC(=O)N2CCCN(c3ccc(C#N)cc3)CC2)cs1`, the cytotoxicity at 70.5 h rises from -10.9% to -8.68%.

First: CC(=O)Nc1ccc2nc(-c3nccn3CC(C)(C)CO)ccc2c1
Second: Cc1nc(CCNC(=O)C(N)c2c(C)n[nH]c2C)sc1C (stereo unspecified)
The cytotoxicity at 70.5 h of the first is higher: -11% for the first, -13.1% for the second.

First: CCc1nc(N)nc(N2CCCC3(CCN(C)CC3)CC2)c1C
Second: Cc1csc(C2NC3(CCCC3)C(=O)N2CC2CC2)n1 (stereo unspecified)
The cytotoxicity at 70.5 h of the first is lower: 0.239% for the first, 4.39% for the second.

Compared with `CCC1=N[C@@]2(CC[C@@H]3CN(S(=O)(=O)CC(C)C)C[C@@H]32)C(=O)N1C`, `Cn1cc(C(=O)NC[C@@H]2OC[C@H]3CN(S(C)(=O)=O)CC[C@H]32)cn1` is lower in cytotoxicity at 70.5 h: -1.14% for the first, -3.04% for the second.

Compared with `COCCN(Cc1cccnc1)c1nc(C)nc2oc(C)nc12`, `CCOCCN1CCN(Cc2nnc(-c3ccco3)o2)CC1` is lower in cytotoxicity at 70.5 h: -5.28% for the first, -5.68% for the second.
